Test results as given in PMC13128454, “Mutant p53 protein accumulation is selectively targetable by proximity-inducing drugs” (Nature Chemical Biology, 2025).
Values joined by “and” are separate entries in the source; they are usually repeats but may differ in a detail not shown here. Equal values may be shown once. Read-outs that look alike come from different tables or passages of the source.

How the values were obtained:
Type in all cases: cell-based
[1] = test system: Calu-1 cells stably expressing Halo–p53-R273H (FL)–mCherry versus parental Calu-1 cells; experiment: flow-cytometry growth competition; conditions: sheet S2E
Experimental: (§1) Cells with and without a fluorescent marker (for example, Halo–p53–mCherry) were mixed and the resulting solution was plated in six-well plates or 10-cm dishes at low density; compound was added at varying concentrations. After reaching confluence, cells were passaged and retreated with compound if needed. Otherwise, cells were trypsinized, washed and resuspended in complete growth medium in 96-well plates or tubes for flow cytometry. Untreated cell mixtures were used to establish gates separating the fluorophore^+/− populations. Analysis was conducted on a CytoFLEX LX flow cytometer.

[2] = test system: Halo–p53-Y220C ΔTAD–mCherry 293T cells versus parental 293T cells; experiment: flow-cytometry growth competition; conditions: for normalized_mCherry_percentage: Y220C, day 8, normalized to DMSO
Experimental: as §1

[3] = test system: MFE319 cells stably expressing sgTP53–Cas9–EGFP versus parental MFE319 cells; experiment: flow-cytometry growth competition
Experimental: as §1

[4] = CellTiter-Glo cell viability; conditions: human, p53_construct WT, CTG 4 days, read-out: mean (normalized viability)
Experimental: Cells were plated in 384-well plates (typically 1,500 cells per well) with varying concentrations of compounds, with a total volume of 50 μl per well. CTG reagent was added (25 μl) to the solutions, mixed and read out using an EnVision 2105 multimode plate reader.

[5] = test system: Halo–p53-Y220C ΔTAD–mCherry 293T cells; experiment: caspase 3/7 glo; conditions: for mean_norm (caspase 3/7 glo): Cell_Line Y220C, normalized to Concentration 0; for raw caspase 3/7 glo signal, single replicate: Y220C
Experimental: (§2) Cells were plated in 384-well plates (typically 1,500 cells per well) with varying concentrations of compounds with a total volume of 50 μl per well. After 1 day, caspase 3/7 glo reagent (Promega) was added following the manufacturer’s protocol and read out using an EnVision 2105 multimode plate reader.

[6] = test system: parental 293T cells; experiment: caspase 3/7 glo; conditions: for mean_norm (caspase 3/7 glo): Cell_Line WT, normalized to Concentration 0; for raw caspase 3/7 glo signal, single replicate: WT
Experimental: as §2

[7] = test system: Calu-1 cells stably expressing Halo–p53-R273H (FL)–mCherry–2A–mTagBFP2-V5; experiment: CellTiter-Glo cell viability; conditions: CTG 4 days; for replicates (raw CTG signal): p53_construct Mut
[8] = test system: parental 293T cells; experiment: annexin–PI staining; conditions: for P3_avg (P3 = early apoptotic) / P5_avg (P5 = late apoptotic): Cell_Line WT, proportion of cells; for avgprop_P3 / avgprop_P4 / avgprop_P5 / avgprop_P2 / P2_viable / P3_AnnexinPos_PIneg / P4_PIpos_AnnexinNeg / P5_PIpos_Annexinpos / prop_P3 / prop_P4 / prop_P5 / prop_P2: WT; for avgprop_P3: average proportion AnnexinPos PIneg; for avgprop_P4: average proportion PIpos AnnexinNeg; for avgprop_P5: average proportion PIpos Annexinpos; for avgprop_P2: average proportion viable; for P2_viable / P3_AnnexinPos_PIneg / P4_PIpos_AnnexinNeg / P5_PIpos_Annexinpos: event count; for P2_viable / P3_AnnexinPos_PIneg / P4_PIpos_AnnexinNeg / P5_PIpos_Annexinpos / prop_P3 / prop_P4 / prop_P5 / prop_P2: single replicate; for prop_P3: proportion AnnexinPos PIneg; for prop_P4: proportion PIpos AnnexinNeg; for prop_P5: proportion PIpos Annexinpos; for prop_P2: proportion viable
Experimental: Cells were plated in six-well plates and treated with varying concentrations of compounds for 1 day. Cells were stained with annexin V–AF488 and PI following the manufacturer’s instructions (Thermo Fisher, V13241) and analyzed by flow cytometry (Beckman CytoFLEX LX), using untreated cells to establish gates.

Compound: CC[C@@H]1C(=O)N(C)c2cnc(Nc3ccc(C(=O)NC4CCN(C)CC4)cc3OC)nc2N1C1CCCC1 [BI2536]
- mCherry_percent ([1]; 0.1 nM): 80.66%
- mCherry_percent ([1]; 1 nM): 80.59%
- mCherry_percent ([1]; 10 nM): 80.93%
- activity / difference in cell survival in competition ([2]; 8-day competition): did not observe any activity
- normalized_mCherry_percentage ([2]; 0.02 nM): 98.51%
- normalized_mCherry_percentage ([2]; 0.2 nM): 98.69%
- normalized_mCherry_percentage ([2]; 1 nM): 100.1%
- normalized_mCherry_percentage ([2]; 5 nM): 117.7%
- merge_avg (growth competition, sheet 4H) ([3]; Concentration (pM) 19.5312): 0.9382
- merge_avg (growth competition, sheet 4H) ([3]; Concentration (pM) 78.125): 0.9005
- merge_avg (growth competition, sheet 4H) ([3]; Concentration (pM) 312.5): 0.9194
- merge_avg (growth competition, sheet 4H) ([3]; Concentration (pM) 1250): 0.8118
- enrichment of EGFP^+ (TP53-knockout) population ([3]; day 9, p53-01 at doses between 800 nM and 1.25 μM): no such activity
- viability at 4 days ([4]; Compound_conc 0.0488281): 97%
- viability at 4 days ([4]; Compound_conc 0.0976562): 111%
- viability at 4 days ([4]; Compound_conc 0.195312): 98.9%
- viability at 4 days ([4]; Compound_conc 0.390625): 103%
- viability at 4 days ([4]; Compound_conc 0.78125): 103%
- viability at 4 days ([4]; Compound_conc 1.5625): 105%
- viability at 4 days ([4]; Compound_conc 3.125): 101%
- viability at 4 days ([4]; Compound_conc 6.25): 80.9%
- viability at 4 days ([4]; Compound_conc 12.5): 64.4%
- viability at 4 days ([4]; Compound_conc 25): 62.4%
- viability at 4 days ([4]; Compound_conc 50): 49.4%
- viability at 4 days ([4]; Compound_conc 100): 42%
- mean_norm (caspase 3/7 glo) ([5]; Concentration 0.0195312): 0.7877
- mean_norm (caspase 3/7 glo) ([5]; Concentration 0.0390625): 0.7982
- mean_norm (caspase 3/7 glo) ([5]; Concentration 0.078125): 0.8973
- mean_norm (caspase 3/7 glo) ([5]; Concentration 0.15625): 0.6969
- mean_norm (caspase 3/7 glo) ([5]; Concentration 0.3125): 0.7125
- mean_norm (caspase 3/7 glo) ([5]; Concentration 0.625): 0.7879
- mean_norm (caspase 3/7 glo) ([5]; Concentration 1.25): 1.419
- mean_norm (caspase 3/7 glo) ([5]; Concentration 2.5): 1.997
- mean_norm (caspase 3/7 glo) ([5]; Concentration 5): 1.954
- mean_norm (caspase 3/7 glo) ([5]; Concentration 10): 2.025
- raw caspase 3/7 glo signal, single replicate ([5]; Concentration 19.5312): 115256 and 127200 and 115855 and 132591
- raw caspase 3/7 glo signal, single replicate ([5]; Concentration 39.0625): 137775 and 105993 and 131607 and 122061
- raw caspase 3/7 glo signal, single replicate ([5]; Concentration 78.125): 135249 and 137668 and 143467 and 142866
- raw caspase 3/7 glo signal, single replicate ([5]; Concentration 156.25): 101297 and 110278 and 108541 and 114189
- raw caspase 3/7 glo signal, single replicate ([5]; Concentration 312.5): 98096 and 116170 and 98914 and 130859
- raw caspase 3/7 glo signal, single replicate ([5]; Concentration 625): 117128 and 121353 and 128759 and 123804
- raw caspase 3/7 glo signal, single replicate ([5]; Concentration 1250): 212391 and 226804 and 198553 and 246616
- raw caspase 3/7 glo signal, single replicate ([5]; Concentration 2500): 314760 and 286983 and 322612 and 319985
- raw caspase 3/7 glo signal, single replicate ([5]; Concentration 5000): 280409 and 304325 and 302507 and 330408
- raw caspase 3/7 glo signal, single replicate ([5]; Concentration 10000): 320499 and 297797 and 322913 and 320880
- mean_norm (caspase 3/7 glo) ([6]; Concentration 0.0195312): 0.9498
- mean_norm (caspase 3/7 glo) ([6]; Concentration 0.0390625): 0.9355
- mean_norm (caspase 3/7 glo) ([6]; Concentration 0.078125): 1.009
- mean_norm (caspase 3/7 glo) ([6]; Concentration 0.15625): 0.7951
- mean_norm (caspase 3/7 glo) ([6]; Concentration 0.3125): 0.7961
- mean_norm (caspase 3/7 glo) ([6]; Concentration 0.625): 0.9439
- mean_norm (caspase 3/7 glo) ([6]; Concentration 1.25): 1.163
- mean_norm (caspase 3/7 glo) ([6]; Concentration 2.5): 1.635
- mean_norm (caspase 3/7 glo) ([6]; Concentration 5): 1.96
- mean_norm (caspase 3/7 glo) ([6]; Concentration 10): 2.136
- raw caspase 3/7 glo signal, single replicate ([6]; Concentration 19.5312): 101820 and 113248 and 111453 and 123771
- raw caspase 3/7 glo signal, single replicate ([6]; Concentration 39.0625): 126417 and 91473 and 129554 and 96056
- raw caspase 3/7 glo signal, single replicate ([6]; Concentration 78.125): 125458 and 106940 and 132813 and 113259
- raw caspase 3/7 glo signal, single replicate ([6]; Concentration 156.25): 92236 and 94370 and 93114 and 97215
- raw caspase 3/7 glo signal, single replicate ([6]; Concentration 312.5): 90006 and 94305 and 93528 and 99564
- raw caspase 3/7 glo signal, single replicate ([6]; Concentration 625): 118546 and 104034 and 117323 and 107564
- raw caspase 3/7 glo signal, single replicate ([6]; Concentration 1250): 131108 and 131356 and 152167 and 136802
- raw caspase 3/7 glo signal, single replicate ([6]; Concentration 2500): 182654 and 187485 and 215491 and 189535
- raw caspase 3/7 glo signal, single replicate ([6]; Concentration 5000): 226831 and 221170 and 240802 and 240601
- raw caspase 3/7 glo signal, single replicate ([6]; Concentration 10000): 259590 and 240701 and 269097 and 243095
- differential proliferation effect ([7]; Calu-1 p53 WT versus p53-R273H): lacked a differential proliferation effect
- replicates (raw CTG signal) ([7]; Compound_conc 0.0488281): 197890 and 183273 and 187583 and 162992
- replicates (raw CTG signal) ([7]; Compound_conc 0.0976562): 191053 and 161144 and 203266 and 199816
- replicates (raw CTG signal) ([7]; Compound_conc 0.195312): 176045 and 169600 and 186049 and 169525
- replicates (raw CTG signal) ([7]; Compound_conc 0.390625): 185229 and 162171 and 189977 and 157434
- replicates (raw CTG signal) ([7]; Compound_conc 0.78125): 218482 and 178554 and 204635 and 180452
- replicates (raw CTG signal) ([7]; Compound_conc 1.5625): 174155 and 148473 and 186714 and 171263
- replicates (raw CTG signal) ([7]; Compound_conc 3.125): 194944 and 176651 and 192942 and 172246
- replicates (raw CTG signal) ([7]; Compound_conc 6.25): 144484 and 119258 and 155344 and 132872
- replicates (raw CTG signal) ([7]; Compound_conc 12.5): 123471 and 113233 and 124855 and 101499
- replicates (raw CTG signal) ([7]; Compound_conc 25): 102356 and 92186 and 120326 and 90854
- replicates (raw CTG signal) ([7]; Compound_conc 50): 87813 and 79696 and 71081 and 71223
- replicates (raw CTG signal) ([7]; Compound_conc 100): 63459 and 73795 and 72267 and 61765
- P3_avg (P3 = early apoptotic) ([8]; Concentration 0.75): 0.04079
- P5_avg (P5 = late apoptotic) ([8]; Concentration 0.75): 0.01489
- P3_avg (P3 = early apoptotic) ([8]; Concentration 1.5): 0.1126
- P5_avg (P5 = late apoptotic) ([8]; Concentration 1.5): 0.03242
- avgprop_P3 ([8]; Concentration 0.75): 0.04079
- avgprop_P4 ([8]; Concentration 0.75): 0.03008
- avgprop_P5 ([8]; Concentration 0.75): 0.01489
- avgprop_P2 ([8]; Concentration 0.75): 0.9142
- P2_viable ([8]; Concentration 0.75): 2015 and 2037 and 2022
- P3_AnnexinPos_PIneg ([8]; Concentration 0.75): 93 and 83 and 95
- P4_PIpos_AnnexinNeg ([8]; Concentration 0.75): 62 and 58 and 80
- P5_PIpos_Annexinpos ([8]; Concentration 0.75): 28 and 35 and 36
- prop_P3 ([8]; Concentration 0.75): 0.04231 and 0.03751 and 0.04254
- prop_P4 ([8]; Concentration 0.75): 0.02821 and 0.02621 and 0.03583
- prop_P5 ([8]; Concentration 0.75): 0.01274 and 0.01582 and 0.01612
- prop_P2 ([8]; Concentration 0.75): 0.9167 and 0.9205 and 0.9055
- avgprop_P3 ([8]; Concentration 1.5): 0.1126
- avgprop_P4 ([8]; Concentration 1.5): 0.02945
- avgprop_P5 ([8]; Concentration 1.5): 0.03242
- avgprop_P2 ([8]; Concentration 1.5): 0.8255
- P2_viable ([8]; Concentration 1.5): 1572 and 1534 and 1608
- P3_AnnexinPos_PIneg ([8]; Concentration 1.5): 206 and 222 and 215
- P4_PIpos_AnnexinNeg ([8]; Concentration 1.5): 60 and 57 and 51
- P5_PIpos_Annexinpos ([8]; Concentration 1.5): 54 and 71 and 60
- prop_P3 ([8]; Concentration 1.5): 0.1089 and 0.1178 and 0.1112
- prop_P4 ([8]; Concentration 1.5): 0.03171 and 0.03025 and 0.02637
- prop_P5 ([8]; Concentration 1.5): 0.02854 and 0.03769 and 0.03102
- prop_P2 ([8]; Concentration 1.5): 0.8309 and 0.8142 and 0.8314
